Reference: patent publication US7786131B2, “Pyrimido[5,4-d]pyrimidines derivatives as irreversible inhibitors of tyrosine kinases” (Warner-Lambert Company, priority 1996, dated 2010)
Like-named read-outs stand apart in the source and are kept apart here.

Key:
[1] = target: T1, EGF receptor autophosphorylation in A431 cells (Homo sapiens, UniProt P00533); assay: Irreversibility test: recovery of EGF receptor autophosphorylation after washout; format: cell-based; conditions: for remaining activity at 2 µM: A-431, A431 cells treated 2 hours with 2 μM, read-out: % of Control Autophosphorylation
T1 construct: A431 human epidermoid carcinoma cells were grown in 6-well plates; endogenous in cells; host or cells: A431 human epidermoid carcinoma cells
Method: (§1) Extracts were made by lysing the monolayers in 0.2 mL of boiling Laemlli buffer (2% sodium dodecyl sulfate, 5% beta-mercaptoethanol, 10% glycerol and 50 mM tris[hydroxymethyl]aminomethane (Tris), pH 6.8), and the lysates were heated to 100° C. for 5 minutes. Proteins in the lysate were separated by polyacrylamide gel electrophoresis and electrophoretically transferred to nitrocellulose. The membrane was washed once in 10 mM Tris, pH 7.2, 150 mM NaCl, 0.01% Azide (TNA), and blocked overnight in TNA containing 5% bovine serum albumin and 1% ovalbumin. The membrane was blotted for 2 hours with antiphosphotyrosine antibody (UBI, 1 μg/mL in blocking buffer) and then washed twice in TNA, once in TNA containing 0.05% Tween-20 detergent and 0.05% nonidet P-40 detergent and twice in TNA. […] Band intensities were determined with a Molecular Dynamics laser densitometer.
Duplicate sets of cells were treated with 2 μM of designated compound to be tested as an irreversible inhibitor for either 1 or 2 hours. One set of cells was then stimulated with 100 ng/mL of EGF for 5 minutes and extracts made as described under the western blotting procedure. The other set of cells were washed free of the compound with warmed serum-free media, incubated for 2 hours, washed again, incubated another 2 hours, washed again, and then incubated a further 4 hours. This set of cells was then stimulated with EGF and extracts made similar to the first set of cells.

[2] = target: T1, EGF receptor autophosphorylation in A431 cells; assay: Autophosphorylation assay in A431 cells; format: cell-based; conditions: EGF-stimulated EGFR autophosphorylation in A431 cells
Method: as §1
Duplicate sets of cells were treated with a range of concentrations of the designated compound to be tested as an inhibitor for 15 minutes. The cells were then stimulated with 100 ng/mL of EGF for 5 minutes and extracts made as described under the Western Blotting Procedure.

[3] = target: c-src tyrosine kinase (UniProt P00523); assay: Tyrosine kinase assay, c-src; format: biochemical
[4] = target: T2, insulin receptor intracellular kinase domain (Homo sapiens, UniProt P06213); assay: Tyrosine kinase assay, insulin receptor; format: biochemical
T2 construct: Assays using intracellular kinase domains of PDGF, FGF, and insulin receptors

[5] = test system: NIH 3T3 fibroblast transfected with the h-EGF receptor; assay: EGFR tumor xenograft in nude mice
Method: Female nude mice (NCr nu/nu, Taconic Farms) 18-20 g were implanted SC with tumor fragments (approximately 30 mg) in the region of the right axilla on Day 0. […] The vehicle was 6% dimethyl acetamide in 50 mM lactate buffer, pH 4.0Tumor volumes were recorded three times per week by measuring the length and width of the individual tumors and calculating the mass in milligrams according to the formula (a×b^2)/2, where a and b are the length and width of the tumor. Percent T/C (treated/control) was calculated based on the ratio of the median tumor volume of the treated tumors compared with the median tumor volume of the control tumors on specified measurement days.

[6] = test system: A431 human epidermoid carcinoma cells; assay: Growth inhibition assay in A431 cells; format: cell-based; conditions: A-431, 72 hours, cell count, read-out: IC50, inhibition of proliferation in A431 cells
Method: A431 human epidermoid carcinoma cells were obtained from the American Type Culture Collection, Rockville, Md. and maintained as monolayers in dMEM (Dulbecco's modified eagle medium)/F12, 50:50 (Gibco/BRL) containing 10% fetal bovine serum. […] The plates were incubated for 72 hours at 37° C. in a humidified atmosphere containing 5% CO2 in air. Cell growth was determined by cell count with a Coulter Model AM electronic cell counter (Coulter Electronics, Inc., Hialeah, Fla.).

[7] = target: EGF receptor tyrosine kinase (Homo sapiens, UniProt P00533); assay: Tyrosine kinase assay, isolated EGF receptor tyrosine kinase; format: biochemical
[8] = target: T3, FGF receptor intracellular kinase domain (FGF1) (Homo sapiens, UniProt P11362); assay: Tyrosine kinase assay, FGF receptor; format: biochemical
T3 construct: Assays using intracellular kinase domains of PDGF, FGF, and insulin receptors
T3 sequence (P11362 478-767 limits assumed): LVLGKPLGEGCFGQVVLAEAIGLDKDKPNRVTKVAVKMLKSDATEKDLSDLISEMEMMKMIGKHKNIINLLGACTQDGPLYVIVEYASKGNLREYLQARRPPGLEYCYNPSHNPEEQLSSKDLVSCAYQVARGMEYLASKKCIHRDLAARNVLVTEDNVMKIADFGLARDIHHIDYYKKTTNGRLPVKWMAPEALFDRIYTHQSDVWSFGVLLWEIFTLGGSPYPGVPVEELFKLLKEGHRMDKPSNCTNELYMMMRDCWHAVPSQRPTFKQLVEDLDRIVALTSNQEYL

EGF receptor tyrosine kinase, sequence (P00533 25-1210): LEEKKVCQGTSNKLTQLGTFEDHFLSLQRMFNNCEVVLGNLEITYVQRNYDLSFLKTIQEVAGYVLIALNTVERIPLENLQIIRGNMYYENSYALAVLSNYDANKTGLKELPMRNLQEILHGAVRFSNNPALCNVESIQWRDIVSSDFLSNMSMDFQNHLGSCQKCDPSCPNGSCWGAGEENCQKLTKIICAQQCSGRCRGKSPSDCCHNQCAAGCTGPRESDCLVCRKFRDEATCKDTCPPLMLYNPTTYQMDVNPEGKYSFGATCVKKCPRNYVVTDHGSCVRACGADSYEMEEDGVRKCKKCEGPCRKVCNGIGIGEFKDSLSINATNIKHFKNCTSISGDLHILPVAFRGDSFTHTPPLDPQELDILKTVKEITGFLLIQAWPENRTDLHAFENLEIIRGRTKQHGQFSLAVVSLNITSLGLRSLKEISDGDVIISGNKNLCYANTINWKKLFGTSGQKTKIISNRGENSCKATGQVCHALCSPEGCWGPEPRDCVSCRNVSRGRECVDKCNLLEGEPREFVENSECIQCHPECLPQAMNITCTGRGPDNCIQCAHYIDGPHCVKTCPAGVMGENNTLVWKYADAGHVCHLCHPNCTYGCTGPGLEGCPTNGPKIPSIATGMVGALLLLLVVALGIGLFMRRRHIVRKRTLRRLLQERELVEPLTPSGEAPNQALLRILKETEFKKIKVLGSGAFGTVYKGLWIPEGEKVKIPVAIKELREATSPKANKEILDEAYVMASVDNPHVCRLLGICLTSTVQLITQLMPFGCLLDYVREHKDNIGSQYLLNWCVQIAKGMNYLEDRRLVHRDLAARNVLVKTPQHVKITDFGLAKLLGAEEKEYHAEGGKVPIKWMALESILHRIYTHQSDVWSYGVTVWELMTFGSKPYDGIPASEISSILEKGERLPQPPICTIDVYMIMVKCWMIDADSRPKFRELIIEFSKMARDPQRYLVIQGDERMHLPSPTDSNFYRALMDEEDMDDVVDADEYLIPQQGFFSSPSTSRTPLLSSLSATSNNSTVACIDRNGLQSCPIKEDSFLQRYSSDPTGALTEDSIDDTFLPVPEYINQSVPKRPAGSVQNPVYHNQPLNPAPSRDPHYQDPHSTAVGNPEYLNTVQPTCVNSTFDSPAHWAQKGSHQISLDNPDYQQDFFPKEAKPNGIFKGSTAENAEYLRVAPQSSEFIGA
T1 sequence (P00533 25-1210): as above
T2 sequence (P06213 1023-1298 limits assumed): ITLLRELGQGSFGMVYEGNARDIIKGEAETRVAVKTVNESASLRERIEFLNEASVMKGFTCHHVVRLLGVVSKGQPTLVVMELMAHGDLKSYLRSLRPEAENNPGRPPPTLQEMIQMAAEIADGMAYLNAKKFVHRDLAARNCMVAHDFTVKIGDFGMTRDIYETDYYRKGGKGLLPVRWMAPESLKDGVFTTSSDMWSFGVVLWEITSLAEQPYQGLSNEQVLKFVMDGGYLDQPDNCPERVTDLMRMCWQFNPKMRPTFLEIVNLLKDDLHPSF

`C=CC(=O)Nc1ccc2c(Nc3cccc(Br)c3)ncnc2c1` [Example 3, N-[4-(3-Bromo-phenylamino)-quinazolin-7-yl]acrylamide] was tested, and the “% Control After 2-Hour Incubation” value ([1]; A431 cells, 2 μM inhibitor, EGFR autophosphorylation) was 1%, the “% Control After 8 Hours in Drug-Free Media Incubation” value ([1]; A431 cells, 2 μM inhibitor, washed, 8 hours drug-free) was 13% and the “time required for return of 50% of the activity” value ([1]; A431 cells, 2 μM, drug-free media (Table 3)) was 21 h. For the same compound, the remaining activity at 2 µM ([1]; 0 hours in drug-free media) was 0%, the remaining activity at 2 µM ([1]; 4 hours in drug-free media) was 12% and the remaining activity at 2 µM ([1]; 8 hours in drug-free media) was 23%. It also gave a remaining activity at 2 µM ([1]; 23 hours in drug-free media) of 54%, an inhibition at 2 µM ([1]; A-431, A431 cells, 2 μM, end of 8 hours washoff, read-out: inhibition of the enzyme (kinase activity) after washoff) of 89% and an IC50 [2] of 14 nM. The IC50 [3] was over 2500 nM, the IC50 [4] was over 50 µM and the “% T/C” value ([5]; 3 mg/kg/injection, Day 7) was 115%. The “% T/C” value ([5]; 3 mg/kg/injection, Day 10) was 138%, the “% T/C” value ([5]; 3 mg/kg/injection, Day 12) was 113% and the “% T/C” value ([5]; 30 mg/kg/injection, Day 7) was 48%. For the same compound, the “% T/C” value ([5]; 30 mg/kg/injection, Day 10) was 66%, the “% T/C” value ([5]; 30 mg/kg/injection, Day 12) was 53% and the “% T/C” value ([5]; 100 mg/kg/injection, Day 7) was 57%. The “% T/C” value ([5]; 100 mg/kg/injection, Day 10) was 70%, the “% T/C” value ([5]; 100 mg/kg/injection, Day 12) was 57% and the “activity against tumor growth” value ([5]; 10 or 3 mg/kg/injection IP every 12 hours Days 3-7) was “No activity”. For the same compound, the growth delay ([5]; EGFR tumor, IP bid Days 1 through 13, 75 mg/kg) was 5 days, the activity ([5]; EGFR tumor, IP bid Days 1 through 13, 300 mg/kg) was “no activity” and the growth delay ([5]; EGFR tumor, IP bid Days 1 through 13, 190 and 120 mg/kg) was 1 days. The growth delay ([5]; EGFR tumor, IP bid Days 3 through 7, 30 mg/kg) was 2.5 days, the growth delay ([5]; EGFR tumor, IP bid Days 3 through 7, 100 mg/kg) was 4 days and the “weight loss, lethality, or clinical signs of toxicity” value ([5]; any dose level, IP every 12 hours Days 3-7) was “No weight loss, lethality, or clinical signs of toxicity”. For the same compound, the IC50 [6] was 300 ± 90 nM, the “specificity for the EGF receptor tyrosine kinase as opposed to other tyrosine kinase enzymes” value ([7]; Table 4) was “very high specificity” and the IC50 ([7]; Table 4, read-out: EGFR IC50) was 0.36 nM. The IC50 ([7]; isolated EGFR kinase, read-out: EGFR Tyrosine Kinase IC50) was 0.36 nM and the IC50 [8] was over 50 µM.
